{"source": "patent US20060205751A1", "about": "“Novel compounds” (SmithKline Beecham Corporation, priority 2003, published 2006)", "data": [{"compound": "O=C(O)c1cccc(-c2cc3cc(Cl)c(Cl)cc3[nH]2)c1", "note": "[Example 1, 3-(5,6-Dichloro-1H-indol-2-yl)-benzoic acid]", "values": [{"measurement": "melting point", "result": "79.5 to 80.5", "unit": "°C"}]}]}
